Counter-ions that a name gives are not always drawn.

The subject of data set [1] is α1a and α1d subtypes over the α1b subtype. As to conditions: cited from earlier work.
Data set [2] concerns BPH patients. As to conditions: large clinical trials of BPH patients; cited from earlier work.
Data set [3] relates to micturition pressure. As to conditions: intrathecal; normal rats and rats with bladder hypertrophy secondary to outlet obstruction; cited from earlier work.

For the compound `CCN([C@H]1CC[C@@H](N2CCN(c3ccccc3OC(C)C)CC2)CC1)S(=O)(=O)c1ccc(OC)c(OC)c1` (as salt: fumarate) [Cpd 67, N-Ethyl-N-cis-{4-[4-(2-isopropoxy-phenyl)-piperazin-1-yl]-cyclohexyl}-3,4-dimethoxy-benzenesulfonamide], the melting point was 199 °C (dec.). For the compound `CCOc1ccccc1OCCN[C@H](C)Cc1ccc(OC)c(S(N)(=O)=O)c1` [Tamsulosin], the “selectivity for the α1a and α1d subtypes over the α1b subtype” value in data set [1] is recorded as “about 15 fold”. In data set [2], the “effect on obstructive and irritative symptoms” value is “improvement in both obstructive and irritative symptoms”. On to `CCN([C@H]1CC[C@H](N2CCN(c3ccccc3OC(C)C)CC2)CC1)S(=O)(=O)c1ccc(OC)c(OC)c1` (as salt: fumarate) [Cpd 68, N-Ethyl-N-trans-{4-[4-(2-isopropoxy-phenyl)-piperazin-1-yl]-cyclohexyl}-3,4-dimethoxy-benzenesulfonamide], for which the melting point was 186 °C (dec.). Turning to `COc1cc2nc(N3CCN(C(=O)C4COc5ccccc5O4)CC3)nc(N)c2cc1OC` (centres unmarked) [doxazosin], the “effect on micturition pressure” value in data set [3] is listed as “decrease in micturition pressure”.

The record behind these values is US20060173015A1, “Cyclohexyldiamines as selective alpha 1a/1d adrenoreceptor antagonists for the treatment of benign prostatic hypertrophy and lower urinary tract symptoms” (priority 2004, published 2006).
